# Reference: patent publication US8288375B2, “Fungicidal bicyclic pyrazoles” (E.I. du Pont de Nemours and Company, priority 2007, dated 2012)
# Marks after values point to notes of the source that are not given here.
# Assays:
# Assay type in all cases: in vivo
# [1] = test system: Erysiphe graminis f. sp. tritici; assay: Test A: wheat powdery mildew, test suspension sprayed on wheat seedlings, disease rating; details: for pest or weed control at 200 ppm: Blumeria graminis, 192 h
# [2] = test system: Puccinia recondite f sp. tritici; assay: Test B: wheat leaf rust, test suspension sprayed on wheat seedlings, disease rating;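 note: 200 ppm unless marked * meaning 40 ppm or ** meaning 10 ppm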
# Fusarium graminearum = assay: whole plant or invertebrate
# Septoria nodorum = assay: Test D: wheat glume blotch, test suspension sprayed on wheat seedlings, disease rating; details: for pest or weed control at 200 ppm: Parastagonospora nodorum, 216 h
# Phytophthora infestans = assay: whole plant or invertebrate; details: for pest or weed control at 200 ppm: Phytophthora infestans, in Solanum lycopersicum, 120 h, read-out: Test J disease control rating
# Pythium aphanidermatum = assay: Test L: bluegrass pythium blight, test suspension sprayed on bluegrass seedlings, disease rating; details: for pest or weed control at 200 ppm: Pythium aphanidermatum, 120 h;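 for all read-outs here: 200 ppm unless marked * meaning 40 ppm or ** meaning 10 ppm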
# Septoria tritici = assay: Test E: wheat leaf blotch, test suspension sprayed on wheat seedlings, disease rating; details: 200 ppm test suspension; for pest or weed control at 200 ppm: Zymoseptoria tritici, 504 h;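 for all read-outs here: 200 ppm unless marked * meaning 40 ppm or ** meaning 10 ppm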
# [3] = 200 ppm test suspension, 100 = 100% disease control, 0 = no control
SMILES,Test A disease control rating ([1]; 40 ppm test suspension (*)),Test B disease control rating ([2]; 40 ppm test suspension (*)),Test C disease control rating (Fusarium graminearum; 40 ppm test suspension (*)),Test D disease control rating (Septoria nodorum; 40 ppm test suspension (*)),Test J disease control rating (Phytophthora infestans; 40 ppm test suspension (*)),Test L disease control rating (Pythium aphanidermatum; 40 ppm test suspension (*)),"Test A disease control rating [1, 3]",Test B disease control rating ([2]; 200 ppm test suspension),Test C disease control rating (Fusarium graminearum; 200 ppm test suspension),Test D disease control rating (Septoria nodorum; 200 ppm test suspension),Test E disease control rating (Septoria tritici),Test J disease control rating (Phytophthora infestans; 200 ppm test suspension),Test L disease control rating (Pythium aphanidermatum; 200 ppm test suspension),other results
Cc1cc(-c2nn3c(c2-c2ccnc(NC(C)CO)n2)CCCC3)ccc1F (centres unmarked) [compound 32],0* %,74* %,0* %,0* %,98* %,99* %,,,,,,,,
COCC(C)Nc1nccc(-c2c(-c3ccccc3)nn3c2CCCC3)n1 (centres unmarked) [compound 53],0* %,98* %,99* %,84* %,99* %,100* %,,,,,,,,
CC(C)Nc1nccc(-c2c(-c3cccc(F)c3)nn3c2CCC3)n1 [compound 102],,,,,,,73%,92%,100%,97%,100%,96%,99%,
C[C@@H](CO)Nc1nccc(-c2c(-c3ccc(F)cc3)nn3c2CCCC3)n1 [compound 48],,,,,,,0%,99%,99%,0%,99%,99%,100%,
Cc1ccccc1-c1nn2c(c1-c1ccnc(NC(C)C)n1)CCCC2 [compound 45],,,,,,,41%,89%,0%,60%,97%,76%,85%,
OC1(CNc2nccc(-c3c(-c4ccc(F)cc4)nn4c3CCCC4)n2)CC1 [compound 44],,,,,,,91%,85%,99%,89%,100%,65%,0%,
CC(CO)Nc1nccc(-c2c(-c3ccsc3)nn3c2CCCC3)n1 (centres unmarked) [compound 42],,,,,,,0%,85%,66%,0%,59%,99%,100%,
Fc1ccc(-c2nn3c(c2-c2ccnc(NC4CCOCC4)n2)CCCC3)cc1 [compound 49],,,,,,,76%,99%,100%,100%,90%,100%,99%,
CC(CO)Nc1nccc(-c2c(-c3ccc(F)cc3)nn3c2Cc2ccccc2C3)n1 (centres unmarked) [compound 140],,,,,,,0%,90%,98%,0%,49%,26%,99%,
Fc1ccc(-c2nn3c(c2-c2ccnc(NC4CC4)n2)CCCC3)c(F)c1 [compound 28],,,,,,,94%,,,92%,96%,95%,98%,
Cc1cc(-c2nn3c(c2-c2ccnc(NC4CC4)n2)COCC3)ccc1F [compound 119],,,,,,,61%,76%,100%,99%,87%,93%,92%,
"CC(C)Nc1nccc(-c2c(-c3ccccc3)nn3c2CCCC3)n1 [Compound 26, N-(1-methylethyl)-4-(4,5,6,7-tetrahydro-2-phenylpyrazolo[1,5-a]pyridin-3-yl)-2-pyrimidinamine]",,,,,,,,,,,,,,"pest or weed control at 200 ppm [1, 3]: 91%; pest or weed control at 200 ppm (Septoria nodorum; 200 ppm test suspension): 99%; pest or weed control at 200 ppm (Septoria tritici): 96%; pest or weed control at 200 ppm (Phytophthora infestans): 91%; pest or weed control at 200 ppm (Pythium aphanidermatum; 200 ppm test suspension): 100%"
Fc1ccc(-c2nn3c(c2-c2ccnc(NC4CC4)n2)COCC3)c(F)c1 [compound 126],,,,,,,0%,86%,99%,82%,70%,87%,99%,
OCCNc1nccc(-c2c(-c3ccc(F)cc3)nn3c2CCCC3)n1 [compound 25],,,,,,,96%,,,87%,97%,83%,100%,
Cc1cc(-c2nn3c(c2-c2ccnc(NC[Si](C)(C)C)n2)CCCC3)ccc1F [compound 50],0* %,0* %,92* %,0* %,31* %,68* %,,,,,,,,
Cc1cc(-c2nn3c(c2-c2ccnc(NC(C)C)n2)CCCC3)ccc1F [compound 33],0* %,77* %,98* %,94* %,95* %,97* %,,,,,,,,
CN(C)Nc1nccc(-c2c(-c3ccc(F)cc3)nn3c2CCCC3)n1 [compound 23],,,,,,,99%,,,94%,98%,71%,0%,
CC(C)Nc1nccc(-c2c(-c3ccc(Cl)cc3)nn3c2CCCC3)n1 [compound 21],,,,,,,96%,,,82%,100%,52%,76%,
COCC(C)Nc1nccc(-c2c(-c3ccc(F)c(C)c3)nn3c2CCCC3)n1 (centres unmarked) [compound 62],78* %,80* %,98* %,60* %,96* %,99* %,,,,,,,,
Cc1cc(-c2nn3c(c2-c2ccnc(NC4CC4)n2)CCCC3)ccc1F [compound 56],86* %,0* %,100* %,99* %,93* %,100* %,,,,,,,,
C[C@H](CO)Nc1nccc(-c2c(-c3ccc(F)cc3)nn3c2CCCC3)n1 [compound 57],0* %,86* %,0* %,0* %,99* %,100* %,,,,,,,,
CC(C)N(O)c1nccc(-c2c(-c3ccc(F)cc3)nn3c2CS(=O)(=O)CC3)n1 [compound 115],0* %,63* %,0* %,69* %,73* %,,,,,,,,,
"C[C@@H](CO)Nc1nccc(-c2c(-c3ccccc3)nn3c2CCCC3)n1 [Compound 54, (2S)-2-[[4-(4,5,6,7-tetrahydro-2-phenylpyrazolo[1,5-c]pyridine-3-yl)-2-pyrimidinyl]amino]-1-propanol]",0* %,98* %,95* %,60* %,99* %,100* %,,,,,,,,
C[Si](C)(C)CNc1nccc(-c2c(-c3ccccc3)nn3c2CCCC3)n1 [compound 55],0* %,91* %,99* %,44* %,17* %,0* %,,,,,,,,
C#CCNc1nccc(-c2c(-c3ccc(F)cc3)nn3c2CCCC3)n1 [compound 58],0* %,0* %,100* %,82* %,26* %,62* %,,,,,,,,
Clc1ccc(-c2nn3c(c2-c2ccnc(NC4CC4)n2)CCCC3)cc1 [compound 22],,,,,,,50%,,,87%,94%,83%,77%,
"Fc1ccc(-c2nn3c(c2-c2ccnc(NC4CC4)n2)COCC3)cc1 [Compound 109, N-cyclopropyl-4-[2-(4-fluorophenyl)-6,7-dihydro-4H-pyrazolo[5,1-c][1,4]oxazin-3-yl]-2-pyrimidinamine]",,,,,,,,,,,,,,"pest or weed control at 200 ppm [1, 3]: 92%; pest or weed control at 200 ppm (Fusarium graminearum; Fusarium graminearum, in Triticum aestivum, 192 h, read-out: Test C disease control rating): 100%; pest or weed control at 200 ppm (Septoria nodorum; 200 ppm test suspension): 0%; pest or weed control at 200 ppm (Septoria tritici): 100%; pest or weed control at 200 ppm (Phytophthora infestans): 99%; pest or weed control at 200 ppm (Pythium aphanidermatum; 200 ppm test suspension): 100%"
C#CCNc1nccc(-c2c(-c3ccccc3)nn3c2CCCC3)n1 [compound 59],0* %,92* %,99* %,94* %,71* %,,,,,,,,,Test L disease control rating (Pythium aphanidermatum; 10 ppm test suspension (**)): 67** %
